According to article PMC12042053, “Activation and Allostery in a Fungal SAMHD1 Hydrolase: An Evolutionary Blueprint for dNTP Catabolism” (JACS Au, 2025):
One block for each molecule: values may come before it.

What was measured:
Ri SAMHD1 [1] = target: T1, Ri SAMHD1 (Rhizophagus irregularis, UniProt A0A015K8Z8); assay: EPR of mixed-valent diiron cofactor; format: binding; conditions: M9-Fe protein 0.5 mM, ascorbate-reduced, 2.5 mM nucleotide, O2-free; active site
T1 construct: gene RirG_017260; full length (no SAM domain), N-terminal His6-tag, pET28a(+), expressed in E. coli T7 Express in M9 medium with Fe or Mn; purified as monomer and tetramer; crystal model residues 11-451

Ri SAMHD1 [2] = target: T1, Ri SAMHD1; assay: steady-state hydrolysis, HPLC […] nm; format: biochemical; conditions: M9-Fe tetramer, 0.25 μM, 1 mM Mn, 5 mM dithionite, O2-free, fit with substrate/product inhibition, suggested allosteric, second site
Ri SAMHD1 [3] = target: T1, Ri SAMHD1; assay: nucleotide-induced tetramerization, glutaraldehyde cross-linking and SDS-PAGE; format: binding; conditions: monomer, 2 μM, pH 6.5, allosteric
Ri SAMHD1 [4] = target: T2, Ri SAMHD1 (Rhizophagus irregularis, UniProt A0A015K8Z8, D34A); assay: as above; format: binding; conditions: monomer, 2 μM, 1 mM Mn, pH 6.5; allosteric, cooperative
T2 construct: gene RirG_017260; full length (no SAM domain), N-terminal His6-tag, pET28a(+), expressed in E. coli T7 Express in M9 medium with Fe or Mn; purified as monomer and tetramer; crystal model residues 11-451
T2 sequence (A0A015K8Z8 entry or part of it D34A): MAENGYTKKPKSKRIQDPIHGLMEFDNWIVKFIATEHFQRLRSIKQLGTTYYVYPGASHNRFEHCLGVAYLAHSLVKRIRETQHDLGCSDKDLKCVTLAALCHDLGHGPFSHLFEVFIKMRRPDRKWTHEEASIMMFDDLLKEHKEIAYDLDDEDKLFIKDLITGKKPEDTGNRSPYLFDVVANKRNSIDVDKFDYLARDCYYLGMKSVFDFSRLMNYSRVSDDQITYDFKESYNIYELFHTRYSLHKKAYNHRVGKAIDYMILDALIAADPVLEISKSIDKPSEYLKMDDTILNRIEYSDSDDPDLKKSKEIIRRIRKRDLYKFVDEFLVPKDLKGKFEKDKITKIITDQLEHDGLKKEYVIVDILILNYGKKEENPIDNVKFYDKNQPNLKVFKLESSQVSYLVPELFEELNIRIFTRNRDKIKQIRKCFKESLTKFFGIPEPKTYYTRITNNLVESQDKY

Ri SAMHD1 [5] = target: T3, Ri SAMHD1 (Rhizophagus irregularis, UniProt A0A015K8Z8, R42A); assay: as above; format: binding; conditions: monomer, 2 μM, 1 mM Mn, pH 6.5; allosteric, cooperative
T3 construct: gene RirG_017260; full length (no SAM domain), N-terminal His6-tag, pET28a(+), expressed in E. coli T7 Express in M9 medium with Fe or Mn; purified as monomer and tetramer; crystal model residues 11-451
T3 sequence (A0A015K8Z8 entry or part of it R42A): as the sequence (A0A015K8Z8 entry or part of it D34A) above, with A34D, R42A counted along it

Ri SAMHD1 [6] = target: T1, Ri SAMHD1; assay: X-ray crystal structure, […] Å; format: binding; conditions: M9-Mn protein, excess Mn, 5 mM GTP; allosteric site at interface of three subunits; Ca ion bound
[7] = target: SAMHD1 protein from Rhizophagus irregularis, wild type (Rhizophagus irregularis)
purified protein = substrate: Nc1nc2c(ncn2[C@H]2C[C@H](O)[C@@H](COP(=O)(O)OP(=O)(O)OP(=O)(O)O)O2)c(=O)[nH]1; assay: purified protein; format: biochemical, Rhizophagus irregularis; conditions: M9-Fe tetramer, 0.25 μM, 1 mM Mn, 5 mM dithionite, O2-free; fit with substrate/product inhibition

Molecule: Cc1cn([C@H]2C[C@H](O)[C@@H](COP(=O)(O)OP(=O)(O)OP(=O)(O)O)O2)c(=O)[nH]c1=O [dTTP]
EPR of mixed-valent diiron cofactor (Ri SAMHD1 [1]): Addition of nonguanine-containing dNTPs (dATP, dCTP, and dTTP) increased the signal rhombicity

Molecule: Nc1ncnc2c1ncn2[C@H]1C[C@H](O)[C@@H](COP(=O)(O)OP(=O)(O)OP(=O)(O)O)O1 [dATP]
EPR of mixed-valent diiron cofactor (Ri SAMHD1 [1]): Addition of nonguanine-containing dNTPs (dATP, dCTP, and dTTP) increased the signal rhombicity

Molecule: Nc1ccn([C@H]2C[C@H](O)[C@@H](COP(=O)(O)OP(=O)(O)OP(=O)(O)O)O2)c(=O)n1 [dCTP]
EPR of mixed-valent diiron cofactor (Ri SAMHD1 [1]): Addition of nonguanine-containing dNTPs (dATP, dCTP, and dTTP) increased the signal rhombicity

apparent KI (Ri SAMHD1 [2]): 301 ± 24 µM
EC50 (Ri SAMHD1 [3]; 1 mM Mn): 21 ± 3 µM
EC50 (Ri SAMHD1 [4]): 235 ± 5 µM
EC50 (Ri SAMHD1 [5]): 605 ± 9 µM
Molecule: Nc1nc2c(ncn2[C@H]2C[C@H](O)[C@@H](COP(=O)(O)OP(=O)(O)OP(=O)(O)O)O2)c(=O)[nH]1 [dGTP]

EC50 (Ri SAMHD1 [3]; Mn): 31 ± 2 µM
Molecule: Nc1nc2c(ncn2[C@@H]2O[C@H](COP(=O)(O)OP(=O)(O)OP(=O)(O)O)[C@@H](O)[C@H]2O)c(=O)[nH]1 [GTP]
X-ray crystal structure, 2.27 Å (Ri SAMHD1 [6]): only one nucleotide (GTP) is positioned within the interface of three subunits

apparent dNTP hydrolysis rates of the monomeric form on addition of GTP [7]: < 2.4 fold
Molecule: SAMHD1 protein from Rhizophagus irregularis, wild type (enzyme)

B1: Ri SAMHD1 (Rhizophagus irregularis DAOM 197198w) (protein)
chain: MAENGYTKKPKSKRIQDPIHGLMEFDNWIVKFIDTEHFQRLRSIKQLGTTYYVYPGASHNRFEHCLGVAYLAHSLVKRIRETQHDLGCSDKDLKCVTLAALCHDLGHGPFSHLFEVFIKMRRPDRKWTHEEASIMMFDDLLKEHKEIAYDLDDEDKLFIKDLITGKKPEDTGNRSPYLFDVVANKRNSIDVDKFDYLARDCYYLGMKSVFDFSRLMNYSRVSDDQITYDFKESYNIYELFHTRYSLHKKAYNHRVGKAIDYMILDALIAADPVLEISKSIDKPSEYLKMDDTILNRIEYSDSDDPDLKKSKEIIRRIRKRDLYKFVDEFLVPKDLKGKFEKDKITKIITDQLEHDGLKKEYVIVDILILNYGKKEENPIDNVKFYDKNQPNLKVFKLESSQVSYLVPELFEELNIRIFTRNRDKIKQIRKCFKESLTKFFGIPEPKTYYTRITNNLVESQDKY
notes: full length (no SAM domain), N-terminal His6-tag, pET28a(+), expressed in E. coli T7 Express in M9 medium with Fe or Mn; purified as monomer and tetramer; crystal model residues 11-451
Km (purified protein): 11 ± 3 µM
